Laboratory results published in patent publication US5773451A, “Substituted arylthioalkylthiopyridines” (BYK Gulden Lomberg Chemische Fabrik GmbH, priority 1993, dated 1998).
Converted amounts (≈) assume the structure as drawn.

Test system: Helicobacter pylori
Assay: activity against Helicobacter pylori (MIC 50, Columbia agar, growth period of 4 days)
Type: cell-based
Details: 96 h, Columbia agar (Oxoid), method of Iwahi et al., approximate values, read-out: Approx. MIC 50 value
Excerpt: The compounds of formula I have been investigated in respect of their activity against Helicobacter pylori in accordance with the method described by Tomoyuki Iwahi et al. (Antimicrobial Agents and Chemo-therapy, 1991, 490-496) using Columbia agar (Oxoid) over a growth period of 4 days. The approximate MIC 50 values listed in the following Table 2 resulted from these tests for the compounds studied (the numbers stated for the compounds agree with the compound numbers in the description).

Which MIC50 does the source give for Cc1nnc(SCCCSc2ccnc(CSc3nc4ccccc4[nH]3)c2C)s1 [Compound 1] here?
Its MIC50 is ~0.1 µg/mL (≈ 0.218 µM).

With Cc1c(SCCCSc2nncn2C)ccnc1CSc1nc2ccccc2[nH]1 [Compound 2, 2-{[[3-Methyl-4-(3-(4-methyl-1,2,4-triazol-3-yl-thio)-propylthio)-2-pyridinyl]methyl]thio}-1H-benzimidazole] as the molecule, how does the MIC50 read?
The MIC50 was ~0.05 µg/mL (≈ 0.113 µM).

Which MIC50 does the source give for Cc1c(SCCCSc2nccn2C)ccnc1CSc1nc2ccccc2[nH]1 [Compound 3, 2-{[[3-Methyl-4-(3-(1-methylimidazol-2-yl-thio)-propylthio)-2-pyridinyl]methyl]thio}-1H-benzimidazole] here?
The MIC50 was ~0.05 µg/mL (≈ 0.113 µM).

Which MIC50 does the source give for Cc1c(SCCCSc2nnc(N)s2)ccnc1CSc1nc2ccccc2[nH]1 [Compound 5, 2-{[[4-[3-(5-Amino-1,3,4-thiadiazol-2-yl-thio)-propylthio]-3-methyl-2-pyridinyl]methyl]thio}-1H-benzimidazole] here?
Its MIC50 is ~0.5 µg/mL (≈ 1.09 µM).

How did the MIC50 turn out when Cc1c(SCCCSc2ncc[nH]2)ccnc1CSc1nc2ccccc2[nH]1 [Compound 6, 2-{[[4-[3-Imidazol-2-yl-thio-propylthio]-3-methyl-2-pyridinyl]methyl]thio}-1H-benzimidazole] was run?
The MIC50 was ~0.1 µg/mL (≈ 0.234 µM).

How did the MIC50 turn out when Cc1c(SCCCSc2nnnn2C)ccnc1CSc1nc2ccccc2[nH]1 [Compound 8, 2-{[[3-Methyl-4-(3-(1-methyl-tetrazol-5-yl-thio)-propylthio)-2-pyridinyl]methyl]thio}-1H-benzimidazole] was run?
Its MIC50 is ~0.05 µg/mL (≈ 0.113 µM).

With Cc1c(SCCCSc2nccs2)ccnc1CSc1nc2ccccc2[nH]1 [Compound 9, 2-{[[3-Methyl-4-(3-(thiazol-2-yl-thio)-propylthio)2-pyridinyl]methyl]thio}-1H-benzimidazole] as the molecule, how does the MIC50 read?
Its MIC50 is ~0.05 µg/mL (≈ 0.112 µM).

Cc1c(SCCCSc2ccccn2)ccnc1CSc1nc2ccccc2[nH]1 [Compound 10, 2-{[[3-Methyl-4-(3-(pyridin-2-yl-thio)-propylthio)-2-pyridinyl]methyl]thio}-1H-benzimidazole] was tested. Which MIC50 did it give?
Its MIC50 is ~0.05 µg/mL (≈ 0.114 µM).

How did the MIC50 turn out when Cc1c(SCCCSc2ncccn2)ccnc1CSc1nc2ccccc2[nH]1 [Compound 11, 2-{[[3-Methyl-4-(3-(pyrimidin-2-yl-thio)-propylthio)-2-pyridinyl]methyl]thio}-1H-benzimidazole] was run?
The MIC50 was ~0.05 µg/mL (≈ 0.114 µM).

How did the MIC50 turn out when Cc1c(SCCCSc2nc3ccccc3[nH]2)ccnc1CSc1nc2ccccc2[nH]1 [Compound 12] was run?
Its MIC50 is ~0.05 µg/mL (≈ 0.105 µM).

For Cc1c(SCCCSc2ccccc2)ccnc1CSc1nc2ccccc2[nH]1 [Compound 13], which MIC50 is on record?
The MIC50 was ~0.05 µg/mL (≈ 0.114 µM).

Which MIC50 does the source give for Cc1ccnc(SCCCSc2ccnc(CSc3nc4ccccc4[nH]3)c2C)n1 [Compound 16, 2-{[[3-Methyl-4-[3-(4-methyl-pyrimidine-2-yl-thio)-propylthio]-2-pyridinyl]methyl]thio}-1H-benzimidazole] here?
Its MIC50 is ~0.05 µg/mL (≈ 0.11 µM).

With Cc1c(SCCCSc2nncs2)ccnc1CSc1nc2ccccc2[nH]1.Cl.Cl.Cl [Compound 18, 2-{[[3-Methyl-4-(3-(1,3,4-thiadiazol-2-yl-thio)-propylthio)-2-pyridinyl]methyl]thio}-1H-benzimidazole trihydrochloride] as the molecule, how does the MIC50 read?
The MIC50 was ~0.05 µg/mL.

Cc1c(SCCCSc2ccncc2)ccnc1CSc1nc2ccccc2[nH]1 [Compound 19, 2-{[[3-Methyl-4-(3-(pyridin-4-yl-thio)-propylthio)-2-pyridinyl]methyl]thio}-1H-benzimidazole] was tested. Which MIC50 did it give?
The MIC50 was ~0.05 µg/mL (≈ 0.114 µM).

Cc1c(SCCCCSc2nnnn2C)ccnc1CSc1nc2ccccc2[nH]1 [Compound 24, 2-{[[3-Methyl-4-(4-(1-methyl-tetrazol-5-yl-thio)-butylthio)-2-pyridinyl]methyl]thio}-1H-benzimidazole] was tested. Which MIC50 did it give?
The MIC50 was ~0.05 µg/mL (≈ 0.109 µM).
